# System: telomerase
# Assay: telomerase activity by qPCR TRAP in MOLM-13 lysates
# Assay type: cell-based, human
# Conditions: 50 μM imetelstat sodium or 20 nM ABT-199
# Protocol: Samples from the previous section for protein analysis were collected as cell pellets by centrifugation at 5 minutes for 1500K for lyses and protein extraction. Protein lysates were analyzed by utilizing a modified method combined from two primary sources (Hou, et al. (2001) 43(3) 519-524 and Nature Protocols (2006) 1 (3) 1583-1590). Lysates were generated by adding 80 μL of a 10 mM Tris-EDTA, 1% NP-40, 10% Glycerol, 150 mM NaCl, 1 mM MgCl2, 250 μM Sodium Deoxycholate, 100 μM AEBSF, 5 mM 2-mercaptoethanol buffer and incubating on ice for 30 minutes. Lysates were centrifuged for 15 minutes at max speed and at 4° C. to pellet cellular debris. Protein yield from clarified lysates were quantified using a BCA assay (ThermoFisher catalog 23252) and subjected to a qPCR TRAP-based assay to determine relative telomerase activity (Power SYBR Green PCR Master Mix—ThermoFisher #4367659) using a ViiA7 Real-Time PCR system from ThermoFisher. In this assay, protein lysates are exposed to synthetic oligonucleotides mimicking telomere sequences in the presence of excess dNTPs and SYBR green dye. The greater the activity of telomerase, the greater extension of the synthetic primers, and therefore greater staining of nucleic acid and signal generated by the SYBR dye. This signal is compared to a standard curve of control protein lysate to determine the relative telomerase activity between samples.
compound,measurement,setting,value
"CC1(C)CCC(CN2CCN(c3ccc(C(=O)NS(=O)(=O)c4ccc(NCC5CCOCC5)c([N+](=O)[O-])c4)c(Oc4cnc5[nH]ccc5c4)c3)CC2)=C(c2ccc(Cl)cc2)C1 [ABT-199, 4-[4-[[2-(4-chlorophenyl)-4,4-dimethylcyclohexen-1-yl]methyl]piperazin-1-yl]-N-[3-nitro-4-(oxan-4-ylmethylamino)phenyl]sulfonyl-2-(1H-pyrrolo [2,3-b]pyridin-5-yloxy)benzamide]",telomerase activity as compared to control,"MOLM-13, 48 hours",no effect
same,telomerase activity as compared to control,"MOLM-13, 96 hours",~70%
